{
  "source": "patent US11389427B2",
  "about": "“Compositions and methods of treating cardiac hypertrophy and heart failure” (CASE WESTERN RESERVE UNIVERSITY, priority 2017, dated 2022)",
  "key": {"[1]": {"settings": "mouse, in vivo", "experimental": "Conscious tail-vein systolic blood pressure was measured using the BP2000 Blood Pressure Analysis System (Visitech Systems Inc.) as recommended by the manufacturer. To allow mice to adapt to the apparatus, we performed daily blood pressure measurements for 1 week prior to beginning experiments.\nSR9009 is a drug given systemically and may potentially affect other systems, such as the vascular tone, although pressure overload itself is considered a relatively specific stress directly on the heart. To exclude the possibility that the improved cardiac function and reduced hypertrophy in vivo is associated with improvement in hemodynamics, we measured blood pressure using tail cuff and found there is no difference in mice receiving 4 weeks of Veh (mean arterial pressure [MAP]=106 mmHg) or SR9009 (MAP=115 mmHg, P=0.24)."}, "[2]": {"system": "C57BL/6J mice, TAC pressure overload", "test": "Pressure overload model, transaortic constriction (TAC, 27 gauge), 6-week followup", "format": "in vivo", "settings": "for Corrected left ventricle mass (LVm): echocardiogram; for Ejection fraction (EF): SR9009 i.p. daily from 1 day after surgery", "experimental": "SR9009 was synthesized and purified in the laboratory of Thomas Burris (Department of Pharmacology and Physiology, St. Louis University, St. Louis, Mo., USA). For in vitro experiments, SR9009 was dissolved in DMSO and administered at […]; GSK4112 (EMD Millipore) was dissolved in DMSO and administered at […] using an equal volume of DMSO as control. For in vivo experiments, SR9009 was dissolved in 5% DMSO/10% Cremaphor EL (Sigma-Aldrich, C5135)/85% PBS in a working solution at 10 mg/ml. […] The diluent without SR9009 of the same volume was used as control.\n(§1) All mice were C57BL/6J littermate males aged 9 weeks at the start of the experiment. Mice were anesthetized with ketamine/xylazine, mechanically ventilated (Harvard apparatus), and subjected to thoracotomy. The aortic arch was constricted between the left and right carotid arteries using a 7.0 silk suture and a 27- or 28-gauge needle as previously described (20). Chemicals were obtained from Sigma-Aldrich.\n(§2) For transthoracic echocardiography, mice were anesthetized with 1% inhalational isofluorane and imaged using the Vevo 770 High Resolution Imaging System (Visual Sonics Inc.) and the RMV-707B 30 MHz probe. Measurements were obtained from M-mode sampling, and integrated EKVimages were taken in the LV short axis at the mid-papillary level.\nShort-axis heart sections from the midventricle were fixed in PBS/4% paraformaldehyde and embedded in paraffin. Fibrosis was visualized using Gomori's Trichrome staining kit (Sigma-Aldrich) with quantification of fibrotic area using ImagePro software. TUNEL staining was performed using the CardioTACS In Situ Apoptosis Detection kit (R&D Systems) according to manufacturer's instructions. Cryopreserved sections were used for myocardial capillary staining, which was performed in frozen LV sections using anti-PECAM-1 antibodies (1:200, BD Pharmingen, MEC13.3). The cardiomyocyte cross-sectional area was determined by staining with WGA Alexa 594 (Life Technologies) and analyzed using ImagePro software.\nGiven the strong effect of SR9009 in blocking the cellular remodeling in response to neurohormonal stress, we next tested the role of REV-ERBα activation in vivo using the classical pressure overload model. We started daily i.p. injection of SR9009 or Veh 1 day after transaortic constriction (TAC, 27 gauge) surgery and monitored cardiac hypertrophy and function by echocardiogram for 6 weeks. […] These findings were later confirmed by autopsy performed 6 weeks after TAC by heart weight and muscle fiber size analyses using wheat germ agglutinin staining on cryopreserved sections (FIGS. 3, B-E)."}, "[3]": {"system": "cardiac fibroblasts (CFs)", "test": "TGβ1-induced inflammatory response of cultured cardiac fibroblasts (CFs)", "format": "cell-based, rat", "settings": "cultured CFs pretreated with Veh or SR9009", "experimental": "(§3) NRVMs and CFs were isolated from the hearts of 2-day-old Sprague-Dawley rat pups (Charles River Laboratories). The cells were differentially preplated for 1.5 hr. The nonattached cells were collected as NRVM and replated with 48 hr exposure to BrdU to suppress nonmyocytes. The attached cells were passaged 2-3 times to obtain CFs. NRVMs were initially plated in growth medium (DMEM supplemented with 10% FBS, 100 U/ml penicillin-streptomycin, and 2 mM L-glutamine) for 48 hr and maintained in serum-free media thereafter (DMEM supplemented with 1% insulin-transferrin-selenium liquid media supplement [Sigma-Aldrich, 13146], 100 U/ml penicillin-streptomycin). For hypertrophic stimulation, NRVM were incubated with SR9009 or GSK4112 versus DMSO for 24 hr, followed by stimulation with PE (100 μM) for the indicated time. CFs were cultured in DMEM supplemented with 10% FBS, 100 U/ml penicillin-streptomycin, and 2 mM L-glutamine and stimulated with TGβ1 (eBioscience)."}, "[4]": {"system": "C57BL/6J mice, 28-gauge TAC heart failure model", "test": "Heart failure model, 28-gauge TAC with cross-over, 11-week followup", "format": "in vivo, mouse", "experimental": "(§4) SR9009 was synthesized and purified in the laboratory of Thomas Burris (Department of Pharmacology and Physiology, St. Louis University, St. Louis, Mo., USA). For in vitro experiments, SR9009 was dissolved in DMSO and administered at […]; GSK4112 (EMD Millipore) was dissolved in DMSO and administered at […] using an equal volume of DMSO as control. For in vivo experiments, SR9009 was dissolved in 5% DMSO/10% Cremaphor EL (Sigma-Aldrich, C5135)/85% PBS in a working solution at 10 mg/ml. Micewere injected at a dose of 100 mg/kg/day given i.p. once daily at zeitgeber time 8 (ZT8). The diluent without SR9009 of the same volume was used as control.\nas §1\nas §2, with “level. […]” for “level.”"}, "[5]": {"system": "mouse heart mitochondria", "test": "Mitochondria number, morphology and respiration in mouse hearts after TAC", "format": "in vivo", "settings": "10 weeks after TAC, vs Veh", "experimental": "The assay was performed using Seahorse (Agilent) and following the manufacturer's published protocol. Isolated mitochondria (0.5 μg; measured by BCA assay) were loaded per assay.\nTotal DNA was extracted from the hearts or NRVMs using the QIAamp DNA Mini Kit (Qiagen, 51304). Mitochondrial DNA content was assessed by qPCR using primers specific for multiple mitochondrial-encoded genes (int-Cox1, mt-Nd2, int-Nd1, and mt-Nd5) and normalized to nuclear DNA content (a specific locus on mouse chromosome 6) using the ΔΔCt method.\nSmall pieces of tissue from the LV free wall were fixed by sequential immersion in triple aldehyde-DMSO, ferrocyanide-reduced osmium tetroxide, and acidified uranyl acetate; dehydrated in ascending concentrations of ethanol; passed through propylene oxide; and embedded in Poly/Bed resin (Polysciences Inc., 21844-1). Thin sections were sequentially stained with acidified uranyl acetate, followed by a modification of Sato's triple lead stain, and examined with a JEOL 1200EX electron microscope."}, "[6]": {"system": "human induced pluripotent stem cell-differentiated cardiomyocytes (iPS-CM)", "test": "Endothelin-1-induced hypertrophic response in human iPS-differentiated cardiomyocytes", "format": "cell-based", "settings": "SR9009 pretreatment, ET-1 (10 nM)", "experimental": "We purchased human induced pluripotent stem cell-differentiated cardiomyocytes from Cellular Dynamics (iCell). We followed manufacturer's protocol and measured NPPB expression 24 hr after ET-1 (10 nM, Sigma-Aldrich) induction.\nFor tissue RNA, a 10-20 mg piece of mouse heart at apex was preserved in RNA Later stabilization reagent (Qiagen) followed by mechanical disruption/homogenization in Trizol (Life Technologies) on a TissueLyser (Qiagen) using stainless steel beads (Qiagen). RNA was purified from the aqueous phase using the miRNAeasy kit (Qiagen) following manufacturer's instructions. For cellular samples, total RNA from NRVM was isolated using the High Pure RNA isolation kit (Roche Diagnostics) with on-column DNAase treatment according to manufacturer's directions. […] Relative expression was calculated using the ΔΔCt-method with normalization to Ppib (Cyclophilin-B). […]\nWe induced cellular hypertrophic response in human induced pluripotent stem cell-differentiated cardiomyocytes with endothelin-1 (ET-1) and monitored NPPB (BNP) expression with SR9009 or Veh pretreatment."}, "[7]": {"system": "neonatal rat ventricular myocytes (NRVMs)", "test": "Phenylephrine-induced (PE-induced) cardiomyocyte hypertrophy in NRVMs", "format": "cell-based", "design": "PE-induced cellular hypertrophy (cell size) / PE-induced expression of cellular stress markers (qPCR of Nppa and Nppb): unit of the concentration uncertain", "experimental": "as §4\nas §3, with “CFs were cultured in DMEM supplemented with 10% FBS, 100 U/ml penicillin-streptomycin, and 2 mM L-glutamine and stimulated with TGβ1 (eBioscience).” left out\nNRVM were plated on glass coverslips in 6-well dishes at a density of 1×10^5 cells/ml. […] Quantitation of cardiomyocyte cell surface area was performed on anti-actinin-stained cardiomyocytes using fluorescent microscopy and ImagePro software. […]\nFor tissue RNA, a 10-20 mg piece of mouse heart at apex was preserved in RNA Later stabilization reagent (Qiagen) followed by mechanical disruption/homogenization in Trizol (Life Technologies) on a TissueLyser (Qiagen) using stainless steel beads (Qiagen). […] Relative expression was calculated using the ΔΔCt-method with normalization to Ppib (Cyclophilin-B). […]"}},
  "data": [
    {"smiles": "CCOC(=O)N1CCC(CN(Cc2ccc(Cl)cc2)Cc2ccc([N+](=O)[O-])s2)C1", "note": "(stereo not shown) [SR9009]", "values": [
      {"measurement": "Mean arterial pressure (MAP)", "setting": "[1]", "value": 115, "unit": "mmHg"},
      {"measurement": "Toxicity of the SR9009 dose", "setting": "[2]; 10 mg/kg/day, daily i.p., mice", "value": "no apparent toxicity"},
      {"measurement": "Corrected left ventricle mass (LVm)", "setting": "[2]; 4 weeks after 27-gauge TAC", "value": 111.4, "unit": "mg"},
      {"measurement": "Ejection fraction (EF)", "setting": "[2]; 4 weeks after 27-gauge TAC", "value": 61.4, "unit": "%"},
      {"measurement": "Corrected left ventricle mass (LVm)", "setting": "[2]; 6 weeks after 27-gauge TAC", "value": 114.8, "unit": "mg"},
      {"measurement": "Ejection fraction (EF)", "setting": "[2]; 6 weeks after 27-gauge TAC", "value": 60.6, "unit": "%"},
      {"measurement": "Cell death, TUNEL positives per cross-section of the whole heart", "setting": "[2]; 6 weeks after TAC", "value": "13.4 positives per cross-section of the whole heart"},
      {"measurement": "Capillary density", "setting": "[2]; after 6 weeks of TAC, Veh- vs SR9009-treated", "value": "no difference"},
      {"measurement": "Intramuscular fibrosis area", "setting": "[2]; end of 6 weeks after TAC, Gomori Trichrome", "value": 1.1, "unit": "%"},
      {"measurement": "TGβ1-induced inflammatory response", "setting": "[3]", "value": "no difference"},
      {"measurement": "Ejection fraction (EF)", "setting": "[4]; 6 weeks after 28-gauge TAC, Group II, SR9009 from 2 weeks after TAC (average EF 44% at start)", "value": "43.9%±5%"},
      {"measurement": "Ejection fraction (EF)", "setting": "[4]; after cross-over, additional 5 weeks, Group I received SR9009 (EF 29.1% at cross-over)", "value": "29.8%±3.7%"},
      {"measurement": "Mitochondria morphology by electron microscopy", "setting": "[5]", "value": "no difference"},
      {"measurement": "Mitochondria number estimated by mtDNA to nuclear DNA ratio", "setting": "[5]", "value": "no difference"},
      {"measurement": "Oxidative phosphorylation (OXPHOS) measured by oxygen consumption rate", "setting": "[5]", "value": "no difference"},
      {"measurement": "ET-1-induced NPPB (BNP) expression", "setting": "[6]", "value": "protective effect"},
      {"measurement": "PE-induced expression of cellular stress markers (qPCR of Nppa and Nppb)", "setting": "[7]; NRVMs pretreated 24 hours, then PE 48 hours, SR9009 at 5 (unit uncertain), GSK4112 at 10 (unit uncertain)", "value": "effectively blocked"},
      {"measurement": "PE-induced cellular hypertrophy (cell size)", "setting": "[7]; NRVMs pretreated 24 hours, then PE (100 μM) 48 hours, SR9009 at 5 (unit uncertain)", "value": "effectively blocked"},
      {"measurement": "PE repression of Pdk4 expression (RNA-Seq)", "setting": "[7]; NRVMs, SR9009 given 24 hr prior to PE", "value": "ameliorated"}
    ]}
  ]
}
